Laboratory results: ChEMBL document CHEMBL5120762, “Synthesis of 8-Fluoroneocryptolepine and Evaluation for Cytotoxic Activity against AGS Cancer Cells” (J Nat Prod, 2022)
Active and inactive are the calls of the source. The rule behind the calls is not given here.

Columns and labels:
[1] = system: AGS; experiment: Cytotoxicity against human AGS cells assessed as reduction in cell viability measured after 48 hrs by MTT assay; format: functional, cell-based
[2] = Cytotoxicity against human GES1 cells assessed as reduction in cell viability measured after 48 hrs by MTT assay; format: toxicity, cell-based
[3] = system: AGS; experiment: Induction of apoptosis in human AGS cells assessed as appearance of bright blue fluorescence at 250 nM measured after 48 hrs by Hoechst 33258 staining based fluorescence microscopy; format: functional, cell-based
[4] = system: HCT-116; experiment: Cytotoxicity against human HCT-116 cells assessed as reduction in cell viability measured after 48 hrs by MTT assay; format: functional, cell-based; conditions: HCT-116, 48 h
[5] = system: PANC-1; experiment: Cytotoxicity against human PANC-1 cells assessed as reduction in cell viability measured after 48 hrs by MTT assay; format: functional, cell-based; conditions: PANC-1, 48 h
[6] = system: SMMC-7721; experiment: Cytotoxicity against human SMMC-7721 cells assessed as reduction in cell viability measured after 48 hrs by MTT assay; format: functional, cell-based; conditions: SMMC-7721, 48 h
[7] = system: AGS; experiment: Cytotoxicity against human AGS cells assessed as reduction in cell viability at 10 to 250 nM by MTT assay; format: functional, cell-based; conditions: dose 10-250 nM, time 24-72 hrs, TDE = time-dependent effect
[8] = system: AGS; experiment: Antimigratory activity against human AGS cells measured after 48 hrs by crystal violet staining based transwell assay; format: functional, cell-based; conditions: dose 10-20 nM, DDE = dose-dependent effect
[9] = system: AGS; experiment: Antimigratory activity against human AGS cells assessed as number of migrating cells at 10 to 20 nM measured after 48 hrs by crystal violet staining based transwell assay (reference value: 293); format: functional; conditions: dose 10-20 nM
[10] = system: AGS; experiment: Induction of morphological changes in human AGS cells assessed as cytoplasm concentration at 50 nM measured after 48 hrs; format: functional, cell-based
[11] = system: AGS; experiment: Induction of morphological changes in human AGS cells assessed as conversion pf nuclear pyknosis into dense matter at 50 nM measured after 48 hrs; format: functional, cell-based
[12] = system: AGS; experiment: Induction of morphological changes in human AGS cells assessed as cell rounding at 50 to 250 nM measured after 48 hrs; format: functional, cell-based; conditions: dose 50-250 nM
[13] = system: AGS; experiment: Induction of morphological changes in human AGS cells assessed as appearance of loosely arranged cells at 50 to 250 nM measured after 48 hrs; format: functional, cell-based; conditions: dose 50-250 nM
[14] = system: AGS; experiment: Induction of morphological changes in human AGS cells assessed as weak cell adhesion at 50 to 250 nM measured after 48 hrs; format: functional, cell-based; conditions: dose 50-250 nM
[15] = system: AGS; experiment: Cell cycle arrest in human AGS cells assessed as accumulation at G0/G1 phase at 10 nM measured after 24 hrs by propidium iodide staining based flow cytometry (reference value: 39.77%); format: functional
[16] = system: AGS; experiment: Cell cycle arrest in human AGS cells assessed as accumulation at S phase at 10 nM measured after 24 hrs by propidium iodide staining based flow cytometry (reference value: 43.66%); format: functional
[17] = system: AGS; experiment: Cell cycle arrest in human AGS cells assessed as accumulation at G2/M phase at 10 nM measured after 24 hrs by propidium iodide staining based flow cytometry (reference value: 16.56%); format: functional
[18] = system: AGS; experiment: Cell cycle arrest in human AGS cells assessed as accumulation at G0/G1 phase at 20 nM measured after 24 hrs by propidium iodide staining based flow cytometry (reference value: 39.77%); format: functional
[19] = system: AGS; experiment: Cell cycle arrest in human AGS cells assessed as accumulation at S phase at 20 nM measured after 24 hrs by propidium iodide staining based flow cytometry (reference value: 43.66%); format: functional
[20] = system: AGS; experiment: Cell cycle arrest in human AGS cells assessed as accumulation at G2/M phase at 20 nM measured after 24 hrs by propidium iodide staining based flow cytometry (reference value: 16.56%); format: functional
[21] = system: AGS; experiment: Induction of apoptosis in human AGS cells assessed as chromatin shrinkage at 250 nM measured after 48 hrs by Hoechst 33258 staining based fluorescence microscopy; format: functional, cell-based
[22] = system: AGS; experiment: Induction of apoptosis in human AGS cells assessed as nuclear fragmentation at 250 nM measured after 48 hrs by Hoechst 33258 staining based fluorescence microscopy; format: functional, cell-based
[23] = system: AGS; experiment: Induction of apoptosis in human AGS cells assessed as appearance of apoptotic bodies at 250 nM measured after 48 hrs by Hoechst 33258 staining based fluorescence microscopy; format: functional, cell-based
[24] = system: AGS; experiment: Induction of apoptosis in human AGS cells measured after 48 hrs by Annexin V-Alexa Fluor 488/propidium iodide staining based flow cytometry; format: functional, cell-based; conditions: dose 10-250 nM, DDE = dose-dependent effect
[25] = system: AGS; experiment: Induction of apoptosis in human AGS cells assessed as viable cells at 10 nM measured after 48 hrs by Annexin V-Alexa Fluor 488/propidium iodide staining based flow cytometry (reference value: 95.6%); format: functional; conditions: read-out: Activity
[26] = system: AGS; experiment: Induction of apoptosis in human AGS cells assessed as early apoptotic cells at 10 nM measured after 48 hrs by Annexin V-Alexa Fluor 488/propidium iodide staining based flow cytometry (reference value: 0.4%); format: functional
[27] = system: AGS; experiment: Induction of apoptosis in human AGS cells assessed as late apoptotic cells at 10 nM measured after 48 hrs by Annexin V-Alexa Fluor 488/propidium iodide staining based flow cytometry (reference value: 3.1%); format: functional
[28] = system: AGS; experiment: Induction of apoptosis in human AGS cells assessed as necrotic cells at 10 nM measured after 48 hrs by Annexin V-Alexa Fluor 488/propidium iodide staining based flow cytometry (reference value: 0.9%); format: functional
[29] = system: AGS; experiment: Induction of apoptosis in human AGS cells assessed as viable cells at 50 nM measured after 48 hrs by Annexin V-Alexa Fluor 488/propidium iodide staining based flow cytometry (reference value: 95.6%); format: functional; conditions: read-out: Activity
[30] = system: AGS; experiment: Induction of apoptosis in human AGS cells assessed as early apoptotic cells at 50 nM measured after 48 hrs by Annexin V-Alexa Fluor 488/propidium iodide staining based flow cytometry (reference value: 0.4%); format: functional
[31] = system: AGS; experiment: Induction of apoptosis in human AGS cells assessed as late apoptotic cells at 50 nM measured after 48 hrs by Annexin V-Alexa Fluor 488/propidium iodide staining based flow cytometry (reference value: 3.1%); format: functional
[32] = system: AGS; experiment: Induction of apoptosis in human AGS cells assessed as necrotic cells at 50 nM measured after 48 hrs by Annexin V-Alexa Fluor 488/propidium iodide staining based flow cytometry (reference value: 0.9%); format: functional
[33] = system: AGS; experiment: Induction of apoptosis in human AGS cells assessed as viable cells at 250 nM measured after 48 hrs by Annexin V-Alexa Fluor 488/propidium iodide staining based flow cytometry (reference value: 95.6%); format: functional; conditions: read-out: Activity
[34] = system: AGS; experiment: Induction of apoptosis in human AGS cells assessed as early apoptotic cells at 250 nM measured after 48 hrs by Annexin V-Alexa Fluor 488/propidium iodide staining based flow cytometry (reference value: 0.4%); format: functional
[35] = system: AGS; experiment: Induction of apoptosis in human AGS cells assessed as late apoptotic cells at 250 nM measured after 48 hrs by Annexin V-Alexa Fluor 488/propidium iodide staining based flow cytometry (reference value: 3.1%); format: functional
[36] = system: AGS; experiment: Induction of apoptosis in human AGS cells assessed as necrotic cells at 250 nM measured after 48 hrs by Annexin V-Alexa Fluor 488/propidium iodide staining based flow cytometry (reference value: 0.9%); format: functional
[37] = system: AGS; experiment: Induction of mitochondrial membrane potential loss in human AGS cells assessed as increase in green fluorescence at 10 to 250 nM measured after 48 hrs by JC-10 staining based fluorescence microscopy; format: functional, cell-based; conditions: dose 10-250 nM
[38] = system: AGS; experiment: Induction of cell cycle arrest in human AGS cells assessed as reduction in CDK1 gene expression at 50 nM measured after 48 hrs by RT-qPCR analysis; format: functional, cell-based
[39] = system: AGS; experiment: Induction of cell cycle arrest in human AGS cells assessed as reduction in cyclinB1 gene expression at 50 nM measured after 48 hrs by RT-qPCR analysis; format: functional, cell-based
[40] = system: AGS; experiment: Up regulation of E-cadherin expression in human AGS cells at 50 nM measured after 48 hrs by Western blot analysis; format: functional, cell-based
[41] = system: AGS; experiment: Increase in PI3KCA mRNA expression in human AGS cells at 50 nM measured after 48 hrs by RT-qPCR analysis; format: functional, cell-based
[42] = system: AGS; experiment: Reduction in beta-catenin mRNA expression in human AGS cells at 50 nM measured after 48 hrs by RT-qPCR analysis; format: functional, cell-based
[43] = system: AGS; experiment: Increase in GSK-3beta mRNA expression in human AGS cells at 50 nM measured after 48 hrs by RT-qPCR analysis; format: functional, cell-based
[44] = system: AGS; experiment: Increase in MEK mRNA expression in human AGS cells at 50 nM measured after 48 hrs by RT-qPCR analysis; format: functional, cell-based
[45] = system: AGS; experiment: Down regulation of PI3KCA expression in human AGS cells at 50 nM measured after 48 hrs by Western blot analysis; format: functional, cell-based
[46] = system: AGS; experiment: Inhibition of PI3K in human AGS cells assessed as decrease in AKT phosphorylation at 50 nM measured after 48 hrs by Western blot analysis; format: cell-based
[47] = system: AGS; experiment: Inhibition of PI3K in human AGS cells assessed as decrease in AKT expression at 50 nM measured after 48 hrs by Western blot analysis; format: cell-based
[48] = system: AGS; experiment: Induction of cell cycle arrest in human AGS cells assessed as reduction in CDK1 expression at 50 nM measured after 48 hrs by Western blot analysis; format: functional, cell-based
[49] = system: AGS; experiment: Induction of apoptosis in human AGS cells assessed as up regulation of cleaved caspase-3 expression at 50 nM measured after 48 hrs by Western blot analysis; format: functional, cell-based
[50] = system: AGS; experiment: Inhibition of PI3K in human AGS cells assessed as decrease in AKT mRNA expression at 50 nM measured after 48 hrs by RT-qPCR analysis; format: cell-based

O=c1[nH]cc(F)c(=O)[nH]1 [FLUOROURACIL]
IC50 [1]: 58 µM | IC50 at 48 h [2]: > 100 µM

Cn1c2nc3cc(F)ccc3c-2cc2ccccc21
Activity [3]: Active | IC50 [1]: 0.043 µM | Activity ([1]; DDE = dose-dependent effect): Dde | IC50 [4]: 18 µM | IC50 [5]: > 50 µM | IC50 [6]: 52 µM | IC50 at 48 h [2]: 40 µM | Activity [7]: Tde | Activity [8]: Dde | Activity [9]: 66 | Activity [10]: Active | Activity [11]: Active | Activity [12]: Active | Activity [13]: Active | Activity [14]: Active | Activity [15]: 35.82% | Activity [16]: 42.57% | Activity [17]: 21.61% | Activity [18]: 29.43% | Activity [19]: 45.6% | Activity [20]: 24.97% | Activity [21]: Active | Activity [22]: Active | Activity [23]: Active | Activity [24]: Dde | viability at 0.01 µM [25]: 88.6% | Activity [26]: 1.8% | Activity [27]: 7.3% | Activity [28]: 2.2% | viability at 0.05 µM [29]: 69.8% | Activity [30]: 2.9% | Activity [31]: 17.9% | Activity [32]: 9.5% | viability at 0.25 µM [33]: 24.3% | Activity [34]: 7.7% | Activity [35]: 37.1% | Activity [36]: 30.9% | Activity [37]: Active | Activity [38]: Active | Activity [39]: Active | Activity [40]: Active | Activity [41]: Active | Activity [42]: Active | Activity [43]: Active | Activity [44]: Active | Activity [45]: Active | inhibition [46]: Active | inhibition [47]: Active | Activity [48]: Active | Activity [49]: Active | inhibition [50]: Active
